Data: patent US20070082858A1, “Methods and compositions for the prevention of toxic side effects of aminoglycoside medications” (priority 2004, published 2007)

How the values were obtained:
cochlear hair cells = test: In vivo GTTR uptake in mouse cochlea after sub-cutaneous injection; parameters: species or system mice
Experimental: (§1) Gentamicin sulfate was conjugated to Texas Red (Molecular Probes) using published methods (1) to produce a 300:1 molar dilution of gentamicin-Texas Red conjugate (GTTR). Mice were injected sub-cutaneously with a single 300 mg/kg dose of GTTR. Frogs were injected directly into the lymph sac (there is no sub-cutaneous space in frogs, lymph sacs drain directly into the blood). Control animals received an equivalent dose of hydrolyzed Texas Red succinimidyl esters only.
At specific time-points (0.5, 1, 2, 3, 6, 7.5, 9 and 24 hours) following injection, animals were anesthetized and inner ear organs were excised and fixed in 4% formaldehyde overnight. After washing in PBS, frog and murine organs were permeabilized using ice-cold acetone, and all organs were labeled with Alexa-488-conjugated, or FITC-conjugated phalloidin to localize filamentous actin. […]
For data analysis of murine samples, area intensity measurements of optically-sectioned hair cells (approximately 1-2 microns below the cuticular plate) were obtained from apical and basal cochlear regions (25 hair cells per row in each region). The mean basal intensity was divided by the mean apical intensity of an equivalent number of hair cells to derive a ratio that indicates the relative degree of fluorescence in basal hair cells compared to apical hair cells. […]

[1] = tested on: bullfrog saccular hair cells; test: In vivo GTTR uptake in bullfrog saccule after lymph sac injection
Experimental: as §1
At specific time-points (0.5, 1, 2, 3, 6, 7.5, 9 and 24 hours) following injection, animals were anesthetized and inner ear organs were excised and fixed in 4% formaldehyde overnight. After washing in PBS, frog and murine organs were permeabilized using ice-cold acetone, and all organs were labeled with Alexa-488-conjugated, or FITC-conjugated phalloidin to localize filamentous actin. Mouse and frog inner ear epithelia were whole-mounted and observed using a Bio-Rad MRC 1024 ES laser scanning confocal system attached to a Nikon Eclipse TE300 inverted microscope. Alexa-488 and Texas Red images were collected sequentially using 1024×1024 pixel box size using a 4× (n.a. 0.25) and a 60× lens (n.a. 1.4) with an xy resolution=230 nm and xz resolution=440 nm. All control organs were imaged at the same laser intensity and gain settings as treated organs.

MDCK cells = test: GTTR uptake into MDCK cells under TRPV1 agonists/antagonists, cation channel blockers, cations and pH (30-60 seconds, 20° C., FATX fixation, confocal imaging); settings: 75 μg/ml PIP2 added to 1 μg/ml GTTR in PBS, 1 minute
Text: MDCK cells were used as a model system to test regulation of GTTR uptake by conditions known to produce or modify a cation current through the TRPV1 channel. Conditions tested were varying extracellular calcium concentrations, pH, specific agonists, specific antagonists, and the non-specific cation channel blocker Ruthenium Red. In addition, we pre-mixed PIP2 with GTTR to determine whether that anionic phospholipid, known to bind gentamicin, would alter GTTR uptake. All these assays were done at room temperature (20° C.), for 30 or 60 seconds, and using doses of GTTR of 5 to 10 μg/ml, which are far below the typical therapeutic level of <300 μg/ml. Buffers used for treatment were as described for each experiment. Cells were quickly washed to replace culture medium with treatment buffer, treated as indicated, washed again after treatment, fixed immediately with 4% formaldehyde and 0.5% Triton X-100 (FATX), and washed prior to imaging.
Methods: Cells were seeded into 8-well coverglass chambers at 3000 cells/well and grown for 5 days.
Cells were washed three times with the buffer to be used in the particular experiment, treated with GTTR and experimental variable for 30 or 60 seconds at 20° C., precluding endocytosis. Following treatment, cells were rinsed three times with buffer, then fixed and delipidated with 4% formaldehyde plus 0.5% Triton X-100 (FATX) for 45 minutes. Following fixation, cells were rinsed with PBS (Invitrogen, CA) for at least 4-6 times, or until foaming in the suction pipette ceased. In contrast to previous experiments, no FBS was present in the treatment media, allowing for more rapid uptake of the antibiotic-based GTTR.
MDCK cells were washed with Hank's buffered salt solution (HBSS; Invitrogen, CA), then placed into buffers of varying potassium concentrations. HBSS was mixed with equi-osmolar KCl/HBSS to produce the required K^+ concentrations. Cells were treated with 1 μg/mL GTTR for 1 minute, then washed and fixed as described above.
Cells were washed with PBS (Invitrogen, CA), then placed into buffers containing varying concentrations of calcium, obtained by mixing HBSS with equimolar CaCl2, each at pH 7.3. Cells were treated with 5 μg/mL of GTTR for 30 seconds, then washed and fixed as above.
Cells were washed with saline, then treated with 5 μg/mL of GTTR in saline buffers of varying pH for 30 seconds, then washed and fixed as above. Sodium hydroxide and hydrochloric acid were used to alter pH. These experiments were performed in three different saline buffers: (i) PBS (no calcium), (ii) a mixture of […] for a final calcium concentration of 0.32 mM, and (iii) a mixture of three parts PBS to one part HBSS for a final calcium concentration of 0.97 mM.
Cells were washed three times with Ca^++-free saline (0.9% NaCl), then treated with 5 μg/mL GTTR and one of the following for 30 seconds: TRPV1 agonists (resiniferatoxin [RTX]; or anandamide [AND]; Alexis Biochemicals, San Diego, Calif.); or antagonists (iodo-RTX, or SB 366791; Tocris, Ellisville, Mo.). Cells were then washed in saline and fixed as above.
Cells were washed three times with Ca^++-free 0.9% NaCl, then treated with 5 μg/mL GTTR and one of the following for 30 seconds: 100 μM Ruthenium Red, 100 μM Ruthenium Red plus one of the TRPV1 agonists or antagonists described above; or lanthanum (La^+++) at 0.5 or 5 mM.

[2] = PIP2 quenching of GTTR and TR fluorescence (fixed cells and 3-d scanning fluorescence spectroscopy); settings: 1 mg/ml PIP2 for 1.5 hour, imaged in PIP2 solution; recovered after delipidation
Experimental: PIP2: Monolayer MDCK cells were grown in coverglass chambers as described above. After fixation, delipidation, washing and imaging (FIG. 27B), cells were treated with 1 mg/mL phosphatidylinositol-4,5-bisphosphate (PIP2, Echelon Biosciences, Salt Lake City, Utah) for 1.5 hours and re-imaged (FIG. 27E), prior to a second delipidation with 0.5% Triton, washing and imaging again (FIG. 27F).
Spectrophotometry: 3-d scanning fluorescence spectroscopy of solutions containing TR or GTTR with or without (PIP2) were performed using a Safire fluorescence microplate reader (Tecan, Research Triangle Park, N.C.). GTTR (100 μg/mL; weight as gentamicin in molecule) and PIP2 (155 μg/mL; approximately equimolar) were mixed vigorously in PBS solution and allowed to stand at room temperature for ½ hour prior to scanning. This was compared to the same concentration of GTTR alone in solution. Similar hydrolyzed Texas Red solutions (at the same concentration as the Texas Red moiety in GTTR solutions), with or without PIP2, were used as controls. Excitation and emission spectra were obtained over an excitation range of 570-604 nm (bandwidth 5 nm) and an emission range of 610-650 nm (bandwidth 5 nm).

Compound	fluorescence in inner ear epithelia (cochlear hair cells)	fluorescence in inner ear epithelia [1]	GTTR uptake (MDCK cells)	GTTR fluorescence in FATX-fixed MDCK cells [2]
O=S(=O)([O-])c1cc(S(=O)(=O)O)ccc1C1=c2cc3c4c(c2Oc2c1cc1c5c2CCCN5CCC1)CCC[N+]=4CCC3 [hydrolyzed TR, Texas Red]	negligible fluorescence in their inner ear epithelia at all time points	negligible fluorescence in their inner ear epithelia at all time points		
phosphatidylinositol-4,5-bisphosphate [PIP2]			large reduction in GTTR uptake	clearly quenched the GTTR fluorescence
